Assay results: patent US20250019367A1, “Methods for Separation of Enantiomers” (Mirati Therapeutics, Inc., priority 2021, published 2025)

Assay: Solid form stability versus water activity
Assay type: physicochemical
Settings: IPA-water mixtures, water activity αw
Source text: In certain such embodiments, the reacting step (c) occurs in an iso-propyl alcohol (IPA, i-PrOH) solution, or isopropyl alcohol and water solution. […] mixtures of IPA-water (e.g. 90/10 v/v) are preferred to maximize recovery and control API form. […] In certain embodiments, the step (c) solution is optionally seeded with M-enantiomer free base Compound 2.

For `Cn1ncc(-c2ccc3c(=O)[nH]nc(CN)c3c2)c1-c1c(F)c(Cl)cc(OC2CC2)c1C#N` [Free Base Type A, (2M)-2-(4-(4-(aminomethyl)-1-oxo-1,2-dihydrophthalazin-6-yl)-1-methyl-1H-pyrazol-5-yl)-4-chloro-6-cyclopropoxy-3-fluorobenzonitrile], which “water activity at which the form is the most stable” value is on record?
Its value is at least 0.13.
